Patent US20250313807A1, “SYSTEMS AND METHODS FOR CHARACTERIZATION OF POLYCYSTIC KIDNEY DISEASE” (University of Washington, priority 2022, published 2025)

Experiments:
[1] = system: PKD organoid cysts; experiment: cyst expansion in PKD organoids under static conditions (96-well plate); type: cell-based, human
Procedure: To test functionally whether cyst growth is linked to glucose transport in human organoids, cyst expansion was quantified in increasing concentrations of D-glucose under static conditions (96-well plate).
To test this hypothesis, the effects of pharmacological transport inhibitors on cysts were examined in static conditions.
Kidney organoid differentiation. […] 5,000-20,000 hPSCs per well were placed in each 24-well plate pre-coated with 300 μL of DMEM-F12 containing 0.2 mg/mL Matrigel and sandwiched the following day with 0.2 mg/mL Matrigel in mTeSR1 ([sequence] Technologies, Vancouver) to produce scattered, isolated spheroid colonies. 48 hrs after sandwiching, hPSC spheroids were treated with 12 μM CHIR99021 (Tocris Bioscience) for 36 h, then changed to RB (Advanced RPMI+1× Glutamax+1×B27 Supplement, all from Thermo Fisher Scientific) after 48 hours, and replaced with fresh RB every 3 days thereafter.
Image/video collection. Image collection was performed on a Nikon Ti Live-Cell Inverted Widefield microscope inside of an incubated live imaging chamber supplemented with 5% carbon dioxide. […] For longer-term experiments conducted in static 96-well cultures, organoids were imaged at regular intervals (typically 24 hours) and analyzed at the endpoint indicated in the figure graphs. Phase contrast and GFP (200 ms exposure) images were taken every 5 minutes for a maximum of 12 hours. […]

[2] = system: PKD cysts of Pkd1^RC/RC mice; details: systemic perfusion with PBS+1 mM NBD-Glucose, kidney tissue sections
Procedure: To determine whether PKD cysts absorbed glucose in vivo, a methodology was devised to inject mice with NBD glucose and immediately retrieve their kidneys (FIG. 6D).
For perfusion experiments, NBD Glucose was freshly dissolved in PBS to a concentration of 1 mM. Freshly sacrificed Pkd1^RC/RC mice (>8 months old) were incised through the chest and nicked at the vena cava with a 27-gauge needle. Keeping pressure on the vena cava, mice were perfused systemically through the heart with a syringe containing 10 mL of PBS, followed by a second syringe containing 5 mL of either PBS alone (control) or PBS+1 mM NBD-Glucose. Kidneys were harvested immediately and embedded fresh without fixation or sucrose equilibration in OCT. Cryostat-cut mouse kidney sections (20 μm) were mounted in OCT and imaged on a confocal microscope with 10× objective. […] Mice were maintained on a standard diet under standard pathogen-free housing conditions, with food and water freely available.

[3] = system: PKD organoids
Procedure: The low height of the channels in the flow devices enabled continuous time lapse imaging of fluorescent molecules without high background fluorescence.
Organoid perfusion in microfluidic chip. Ibidi μ-Slide VI0.4 were coated with 3.0% Reduced Growth Factor Geltrex (Life Technologies) and left at 37° C. overnight to solidify. Kidney organoids (21-40 d) were picked from adhered culture plates, pipetted into the slide channels (2-3 per channel) with RB, and left for 24 hrs at 37° C. to attach. Organoids were distributed randomly within the channel. For the fluidic condition, 60 mL syringes filled with RB were attached to channels using clear tubing (Cole-Parmer, 0.02″ ID, 0.083″ OD). A clamp was used to close off the tubing, and the media in the syringe was changed to 25 mL RB+36.5 μM 2-NBD-Glucose fluorescent glucose (Abcam ab146200). […]
Image/video collection. […] Experiments in microfluidic devices were recorded for 6 hours. […] Cyst growth rate in microfluidic devices was therefore calculated on an individual basis, when each cyst reached its maximal volume, which varied for each sample from 1 hour to 5 hours after the start of the experiment. For longer-term experiments conducted in static 96-well cultures, organoids were imaged at regular intervals (typically 24 hours) and analyzed at the endpoint indicated in the figure graphs. […]

[4] = system: PKD organoids; experiment: live/dead staining (calcein AM/propidium iodide) of cystic organoids; type: cell-based, human; details: 24 and 48 hours of treatment

CCCN(CCC)S(=O)(=O)c1ccc(C(=O)O)cc1 [probenecid]
effect on cyst growth ([1]; 15 mM D-Glucose, non-toxic doses): no effect on cyst growth

O=C[C@H](Nc1ccc([N+](=O)[O-])c2nonc12)[C@@H](O)[C@H](O)[C@H](O)CO [NBD glucose, 2-(N-(7-Nitrobenz-2-oxa-1,3-diazol-4-yl)Amino)-2-Deoxyglucose]
uptake by cyst-lining epithelia and surrounding interstitium [2]: readily took up NBD glucose
absorption into organoid proximal and distal tubules (immunofluorescence) ([3]; organoid tubules): absorbed into and accumulated inside organoid proximal and distal tubules
washout from loaded PKD organoids ([3]; switched into media containing only unlabeled glucose, continuous flow): disappeared rapidly

O=C(CCc1ccc(O)cc1)c1c(O)cc(O)cc1O [Phloretin, phloretin]
decrease of cyst size ([1]; 800 μM phloretin, 15 mM glucose): 77%
toxicity by live-dead staining [4]: no significant toxicity
